Test results as given in paper doi:10.1101/2025.07.21.666047v1 (biorxiv, 2025).

What was measured:
[1] = biological target: recombinant human CD28 protein (extracellular domain, His-tagged) (Homo sapiens, UniProt P10747); assay: spectral shift; format: binding
[2] = biological target: CD28:B7.1 (immobilized CD28 and biotinylated B7.1) (Homo sapiens, UniProt P10747); assay: competitive ELISA, chemiluminescent; format: binding
Chain of CD28:B7.1 (immobilized CD28 and biotinylated B7.1) (P10747 19-152 limits assumed): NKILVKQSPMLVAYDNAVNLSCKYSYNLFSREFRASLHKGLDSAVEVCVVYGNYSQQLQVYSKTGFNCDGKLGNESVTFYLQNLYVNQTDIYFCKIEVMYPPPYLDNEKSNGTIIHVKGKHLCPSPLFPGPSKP

Chain of recombinant human CD28 protein (extracellular domain, His-tagged) (P10747 19-152): as the sequence (P10747 19-152 limits assumed) above

Compound | Kd [1] [µM] | IC50 [2] [µM]
COc1ccc(C2CC(C)N(CC(=O)NCC(F)(F)F)C2)cc1 (centres unmarked) [Z3889890124] | 49.5 ± 15.3 | –
CC(C)OC1CCCN(C(=O)c2ccc(-c3nn[nH]n3)s2)C1 (centres unmarked) [Z4390463985] | 45.8 ± 12.1 | 56.3 ± 11.2
NC(=O)c1ccc(N2CCN(C(=O)c3ncc4n3CCCC4)CC2)cc1 [Z2770993038] | 43.3 ± 16.4 | 32.9 ± 5.74
